Data taken from ChEMBL document CHEMBL1201862, “PubChem BioAssay data set” (2004).
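How tested: cells in 96-well plates exposed to compound for 48 hours at five concentrations. GI50 is the concentration that inhibits growth by half.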 Calls of active or inactive are those of the source. No stated cut-off is given here; in the data, active = GI50 up to about 1.1 µM and inactive = higher.

Assays:
Assay in all cases: NCI-60 cell line screen, 48 h
[1] = system: HCT-15
[2] = system: ACHN
[3] = system: HT-29
[4] = system: A498
[5] = system: Hs-578T
[6] = system: OVCAR-4
[7] = system: EKVX
[8] = system: NCI-H460
[9] = system: KM12
[10] = system: SK-MEL-2
[11] = system: UO-31
[12] = system: HCC 2998
[13] = system: MOLT-4
[14] = system: OVCAR-3
[15] = system: IGROV-1
[16] = system: BT-549
[17] = system: Malme-3M
[18] = system: SK-MEL-5
[19] = system: HOP-92

O=c1c2cc([N+](=O)[O-])ccc2n2n1Cc1ccccc1CC2
GI50 [1]: > 100 µM
GI50 [2]: > 100 µM (inactive)
GI50 [3]: > 100 µM (inactive)
GI50 [4]: > 100 µM (inactive)
GI50 [5]: 74.8 µM (inactive)
GI50 [6]: > 100 µM (inactive)
GI50 [7]: 2.11 µM (inactive)
GI50 [8]: > 100 µM (inactive)
GI50 [9]: > 100 µM (inactive)
GI50 [10]: > 100 µM (inactive)
GI50 [11]: > 100 µM (inactive)
GI50 [12]: > 100 µM (inactive)
GI50 [13]: > 100 µM (inactive)
GI50 [14]: > 100 µM (inactive)
GI50 [15]: > 100 µM (inactive)
GI50 [16]: > 100 µM (inactive)
GI50 [17]: > 100 µM (inactive)
GI50 [18]: > 100 µM (inactive)

CC1=C(C(=O)NNC(=O)Cc2ccccc2)CC(C(=O)NNC(=O)Cc2ccccc2)=C(C)N1
GI50 [1]: > 100 µM
GI50 [2]: > 100 µM (inactive)
GI50 [3]: > 100 µM (inactive)
GI50 [19]: > 100 µM (inactive)
GI50 [4]: > 100 µM (inactive)
GI50 [6]: > 100 µM (inactive)
GI50 [7]: > 100 µM (inactive)
GI50 [8]: > 100 µM (inactive)
GI50 [9]: > 100 µM (inactive)
GI50 [10]: > 100 µM (inactive)
GI50 [11]: > 100 µM (inactive)
GI50 [12]: > 100 µM (inactive)
GI50 [14]: > 100 µM (inactive)
GI50 [15]: > 100 µM (inactive)
GI50 [16]: > 100 µM (inactive)
GI50 [18]: > 100 µM (inactive)

C=CC1CN(C(=O)OCC)N(C(=O)OCC)C1CCc1ccccc1 (stereo not drawn)
GI50 [1]: 65.5 µM
GI50 [2]: > 100 µM (inactive)
GI50 [3]: > 100 µM (inactive)
GI50 [19]: 53.5 µM (inactive)
GI50 [5]: > 100 µM (inactive)
GI50 [6]: 57.4 µM (inactive)
GI50 [7]: 72.4 µM (inactive)
GI50 [8]: 74.1 µM (inactive)
GI50 [9]: 71.6 µM (inactive)
GI50 [10]: > 100 µM (inactive)
GI50 [11]: 74.1 µM (inactive)
GI50 [12]: > 100 µM (inactive)
GI50 [13]: 31.2 µM (inactive)
GI50 [15]: 81.8 µM (inactive)
GI50 [17]: > 100 µM (inactive)
GI50 [18]: 64.1 µM (inactive)

CSc1cnn(CCC#N)c(=O)n1
GI50 [1]: > 10 µM
GI50 [2]: > 100 µM (inactive)
GI50 [3]: > 100 µM (inactive)
GI50 [4]: 74 µM (inactive)
GI50 [5]: > 100 µM (inactive)
GI50 [7]: > 100 µM (inactive)
GI50 [9]: > 100 µM (inactive)
GI50 [11]: > 100 µM (inactive)
GI50 [12]: > 100 µM (inactive)
GI50 [13]: 27.1 µM (inactive)
GI50 [15]: > 100 µM (inactive)
GI50 [16]: > 100 µM (inactive)
GI50 [17]: > 100 µM (inactive)
GI50 [18]: 26.4 µM (inactive)

CCOC(=O)c1c(C)cc(=O)n2c1[nH]c1ccccc12
GI50 [1]: 50.9 µM
GI50 [2]: 42.5 µM (inactive)
GI50 [3]: > 100 µM (inactive)
GI50 [19]: > 100 µM (inactive)
GI50 [4]: 40.3 µM (inactive)
GI50 [7]: > 100 µM (inactive)
GI50 [8]: 14.1 µM (inactive)
GI50 [10]: > 100 µM (inactive)
GI50 [11]: > 100 µM (inactive)
GI50 [12]: 78.7 µM (inactive)
GI50 [13]: > 100 µM (inactive)
GI50 [14]: > 100 µM (inactive)
GI50 [15]: > 100 µM (inactive)
GI50 [16]: > 100 µM (inactive)
GI50 [17]: > 100 µM (inactive)
GI50 [18]: > 100 µM (inactive)

O=S(=O)(c1ccccc1)n1c(C(O)c2ccncc2)cc2ccccc21 (stereo not drawn)
GI50 [1]: 33.7 µM
GI50 [2]: 37.7 µM (inactive)
GI50 [3]: 44.6 µM (inactive)
GI50 [19]: 27 µM (inactive)
GI50 [4]: 38.7 µM (inactive)
GI50 [6]: 31.8 µM (inactive)
GI50 [7]: 38.5 µM (inactive)
GI50 [8]: 26.2 µM (inactive)
GI50 [9]: 57.1 µM (inactive)
GI50 [10]: 52.6 µM (inactive)
GI50 [11]: 17.3 µM (inactive)
GI50 [13]: 23.7 µM (inactive)
GI50 [14]: 46.8 µM (inactive)
GI50 [15]: 39.2 µM (inactive)
GI50 [16]: 45.4 µM (inactive)
GI50 [18]: 16.8 µM (inactive)

C/C(=N\NC(=S)N1CCCCC1)c1cccc(C)n1
GI50 [1]: < 0.01 µM
GI50 [2]: < 0.012 µM (active)
GI50 [3]: < 0.01 µM (active)
GI50 [19]: 0.169 µM (active)
GI50 [4]: 0.0199 µM (active)
GI50 [5]: 22.3 µM (inactive)
GI50 [6]: 36.5 µM (inactive)
GI50 [7]: < 0.01 µM (active)
GI50 [8]: < 0.0136 µM (active)
GI50 [9]: < 0.0221 µM (active)
GI50 [10]: 0.515 µM (active)
GI50 [11]: 0.0414 µM (active)
GI50 [12]: 0.082 µM (active)
GI50 [13]: < 0.01 µM (active)
GI50 [14]: < 0.01 µM (active)
GI50 [15]: < 0.01 µM (active)
GI50 [17]: < 0.0197 µM (active)
GI50 [18]: < 0.0335 µM (active)

O=C(NNC(=S)NCc1ccccc1)c1csc(NC(=S)NC2CCCCC2)n1
GI50 [1]: 37.5 µM
GI50 [2]: 38.2 µM (inactive)
GI50 [3]: 3.42 µM (inactive)
GI50 [4]: 42 µM (inactive)
GI50 [7]: 19.2 µM (inactive)
GI50 [9]: 49.9 µM (inactive)
GI50 [10]: 27 µM (inactive)
GI50 [11]: 21.8 µM (inactive)
GI50 [12]: 37.3 µM (inactive)
GI50 [13]: 30.3 µM (inactive)
GI50 [14]: 42.1 µM (inactive)
GI50 [15]: 31.3 µM (inactive)
GI50 [16]: 36.9 µM (inactive)
GI50 [17]: 38.6 µM (inactive)
GI50 [18]: 13.8 µM (inactive)

COc1ccc(C(=O)Nc2ccccc2C#N)cc1
GI50 [1]: > 100 µM
GI50 [2]: > 100 µM (inactive)
GI50 [3]: > 100 µM (inactive)
GI50 [19]: > 100 µM (inactive)
GI50 [4]: > 100 µM (inactive)
GI50 [6]: > 100 µM (inactive)
GI50 [7]: > 100 µM (inactive)
GI50 [8]: > 100 µM (inactive)
GI50 [9]: > 100 µM (inactive)
GI50 [10]: > 100 µM (inactive)
GI50 [14]: > 100 µM (inactive)
GI50 [15]: > 100 µM (inactive)
GI50 [17]: > 100 µM (inactive)
GI50 [18]: > 100 µM (inactive)
